This note sets out measurements from ChEMBL document CHEMBL1156402, “Two new furanoditerpenes from Saururus chinenesis and their effects on the activation of peroxisome proliferator-activated receptor gamma” (J Nat Prod, 2002).

Assay [1] has as its target T1, Peroxisome proliferator-activated receptor gamma (Homo sapiens) (UniProt P37231).
T1 sequence (whole entry): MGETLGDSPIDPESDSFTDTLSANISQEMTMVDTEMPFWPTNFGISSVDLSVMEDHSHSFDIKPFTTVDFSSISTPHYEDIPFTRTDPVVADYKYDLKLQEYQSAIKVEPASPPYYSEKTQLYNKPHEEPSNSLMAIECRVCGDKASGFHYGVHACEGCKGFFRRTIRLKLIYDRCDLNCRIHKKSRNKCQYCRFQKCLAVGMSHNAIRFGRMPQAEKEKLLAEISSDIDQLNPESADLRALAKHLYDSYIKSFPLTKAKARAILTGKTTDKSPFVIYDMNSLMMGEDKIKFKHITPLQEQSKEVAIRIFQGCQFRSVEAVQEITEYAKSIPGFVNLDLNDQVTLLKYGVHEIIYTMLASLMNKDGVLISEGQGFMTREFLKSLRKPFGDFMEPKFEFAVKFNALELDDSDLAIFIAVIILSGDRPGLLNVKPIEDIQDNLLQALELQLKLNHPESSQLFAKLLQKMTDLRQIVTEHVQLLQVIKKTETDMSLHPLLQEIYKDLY
As to the kind of experiment: Agonist activity at human PPARgamma expressed in mouse NIH/3T3 cells assessed as receptor activation at 100 uM after 16 hrs by luciferase based reporter gene assay relative to control. The conditions noted are these: NIH3T3. Format: functional, cell-based. (A reporter such as luciferase makes a cellular process visible.)

Assay [2] deals with T2, Peroxisome proliferator-activated receptor gamma (Homo sapiens, UniProt P37231).
T2 sequence (P37231 whole entry): T1 sequence (whole entry)
As to the kind of experiment: Agonist activity at human PPARgamma expressed in mouse NIH/3T3 cells assessed as receptor activation after 16 hrs by luciferase based reporter gene assay. Format: functional, cell-based, NIH3T3.

On to `CC1(COc2ccc(CC3SC(=O)NC3=O)cc2)CCCCC1` (centres undefined), for which the fold change (FC) in assay [1] is 15.

On to `C/C(=C/CC/C(C)=C/CC/C(C)=C/Cc1occc1C)C(=O)O` [SAURUFURAN A], for which the fold change (FC) in assay [1] was found to be 13.5. Besides, the EC50 (usually the concentration needed to bring the measured effect to its halfway point) in assay [2] worked out at 16.7 µM.

Consider `C/C(=C\CC/C(C)=C/Cc1occc1C)CC/C=C(\C)C(=O)O` [SAURUFURAN B], for which the EC50 in assay [2] is more than 100 µM.
